Earlier results on 23 compounds are cited in patent US20180050107A1, “NEUROSTEROID COMPOSITIONS AND METHODS OF USE THEREOF” (Janssen Pharmaceutica NV, priority 2016, published 2018).

For data set [1] the following is noted: gangliosides added to conventional liposomes.
For data set [2], the target named is T1, GABA(A) delta (Homo sapiens, UniProt O14764).
T1 sequence (O14764 25-452): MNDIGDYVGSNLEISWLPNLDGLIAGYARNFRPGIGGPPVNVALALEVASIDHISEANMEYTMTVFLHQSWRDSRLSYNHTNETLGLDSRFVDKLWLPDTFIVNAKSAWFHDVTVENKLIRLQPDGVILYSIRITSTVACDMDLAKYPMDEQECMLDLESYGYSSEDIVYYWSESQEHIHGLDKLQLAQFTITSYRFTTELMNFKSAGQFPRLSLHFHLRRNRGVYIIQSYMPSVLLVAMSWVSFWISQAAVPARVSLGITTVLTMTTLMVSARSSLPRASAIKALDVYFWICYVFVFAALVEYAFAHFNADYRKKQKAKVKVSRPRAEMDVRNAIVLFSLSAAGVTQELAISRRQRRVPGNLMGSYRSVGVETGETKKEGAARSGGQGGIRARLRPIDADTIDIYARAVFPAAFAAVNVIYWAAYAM
Particulars: 100 uM.

For data set [3] the following is noted: ICU patients.
The target in data set [4] is T1, GABA(A) delta. Conditions: 10 uMol/L, in vitro.
Assay in data set [5]: not given
This is another data set of the same source.

Assay in data set [6]: not given
This is another data set of the same source.

For data set [7] the following is noted: in vivo.
The conditions of data set [8]: in vivo. This is another data set of the same source.
Data set [9] has as its target T1, GABA(A) delta. Particulars: 1 μMol/L.
Data set [10] deals with T2, PPAR-gamma receptors (Homo sapiens, UniProt P37231).
T2 sequence (P37231 1-505): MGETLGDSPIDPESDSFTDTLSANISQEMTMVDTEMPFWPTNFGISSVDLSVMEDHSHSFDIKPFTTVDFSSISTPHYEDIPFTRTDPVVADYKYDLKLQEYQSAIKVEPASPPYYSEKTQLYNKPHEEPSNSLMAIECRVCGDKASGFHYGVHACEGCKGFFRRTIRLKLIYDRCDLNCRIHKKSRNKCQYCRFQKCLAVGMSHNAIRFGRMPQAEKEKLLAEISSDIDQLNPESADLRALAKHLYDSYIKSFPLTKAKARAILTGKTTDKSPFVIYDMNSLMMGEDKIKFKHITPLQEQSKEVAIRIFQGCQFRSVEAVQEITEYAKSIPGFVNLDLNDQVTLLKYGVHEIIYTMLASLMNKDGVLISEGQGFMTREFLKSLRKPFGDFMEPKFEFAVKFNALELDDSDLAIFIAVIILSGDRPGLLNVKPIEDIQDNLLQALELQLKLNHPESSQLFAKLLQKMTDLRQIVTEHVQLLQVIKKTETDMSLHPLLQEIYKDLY
Conditions: read-out: EC for activation of PPAR-gamma receptors.

Data set [11] deals with T3, TrkB receptors (Mus musculus, UniProt P15209).
T3 construct: its downstream PI3K/Akt and MAPK receptors in the mouse hippocampus; host or cells: mouse hippocampus
Particulars: mouse hippocampus.

Assay in data set [12]: not given
This is another data set of the same source.

For data set [13] the following is noted: in vivo. The source holds these as a separate data set.
The conditions of data set [14]: in vivo. The source holds these as a separate data set.
Data set [15] has as its system MMP-9. Conditions: 0.1 μM.
In data set [16] the test system is MDA-MB-231 breast cancer cells. Conditions: 0.1 μM.
The target of data set [17] is β2-AR (Homo sapiens, UniProt P07550). Conditions: 0.1 μM.
For data set [18] the following is noted: in vivo. The source holds these as a separate data set.
For data set [19] the following is noted: oral administration, healthy volunteers.
For data set [20], the target named is T4, rat cerebellar GABA delta subunits (Rattus norvegicus, UniProt P18506).
T4 construct: rat cerebellar GABA delta subunits; host or cells: rat cerebellum

Data set [21] has as its system neurons. Conditions: read-out: EC50 for suppression of apoptosis in neurons.
Data set [22] relates to lung cancer patients. Particulars: combination with EGFR-TKI chemotherapy.

Like-named read-outs stand apart in the source and are kept apart here. Where a SMILES comes first, the peptide text is derived from it.

T3 sequence (P15209 32-821): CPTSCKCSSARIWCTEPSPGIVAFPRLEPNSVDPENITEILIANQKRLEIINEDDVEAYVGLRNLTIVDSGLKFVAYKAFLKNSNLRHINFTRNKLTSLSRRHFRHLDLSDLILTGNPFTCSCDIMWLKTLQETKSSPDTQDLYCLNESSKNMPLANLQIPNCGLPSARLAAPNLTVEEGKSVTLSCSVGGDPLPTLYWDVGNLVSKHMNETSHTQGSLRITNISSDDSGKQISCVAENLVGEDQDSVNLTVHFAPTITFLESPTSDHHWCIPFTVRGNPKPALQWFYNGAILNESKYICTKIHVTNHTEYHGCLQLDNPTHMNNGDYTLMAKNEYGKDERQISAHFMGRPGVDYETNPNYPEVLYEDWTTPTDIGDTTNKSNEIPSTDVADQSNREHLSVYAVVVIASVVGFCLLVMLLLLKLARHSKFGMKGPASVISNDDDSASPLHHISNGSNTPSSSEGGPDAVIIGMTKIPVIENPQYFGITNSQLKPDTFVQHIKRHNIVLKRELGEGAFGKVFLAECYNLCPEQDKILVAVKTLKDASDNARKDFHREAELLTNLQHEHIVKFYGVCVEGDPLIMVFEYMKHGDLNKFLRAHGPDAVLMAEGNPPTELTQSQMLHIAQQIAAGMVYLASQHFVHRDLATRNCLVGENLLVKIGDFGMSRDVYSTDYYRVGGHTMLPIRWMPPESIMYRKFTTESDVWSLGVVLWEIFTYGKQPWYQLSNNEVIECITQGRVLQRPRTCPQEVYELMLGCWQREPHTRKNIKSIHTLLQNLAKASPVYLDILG
T4 sequence (P18506 17-449 limits assumed): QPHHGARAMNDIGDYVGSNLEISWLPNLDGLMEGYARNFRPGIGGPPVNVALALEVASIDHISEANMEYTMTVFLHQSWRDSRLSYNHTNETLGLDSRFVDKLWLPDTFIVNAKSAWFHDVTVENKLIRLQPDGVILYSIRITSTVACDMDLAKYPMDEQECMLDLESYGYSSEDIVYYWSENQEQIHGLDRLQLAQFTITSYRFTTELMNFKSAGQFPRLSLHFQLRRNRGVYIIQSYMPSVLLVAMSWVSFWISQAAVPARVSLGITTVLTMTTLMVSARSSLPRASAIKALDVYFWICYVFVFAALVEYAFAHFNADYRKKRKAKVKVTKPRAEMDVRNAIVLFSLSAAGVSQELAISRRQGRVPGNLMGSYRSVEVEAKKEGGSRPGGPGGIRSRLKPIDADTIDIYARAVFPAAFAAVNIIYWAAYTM
T4 sequence (P30191 20-453 partner): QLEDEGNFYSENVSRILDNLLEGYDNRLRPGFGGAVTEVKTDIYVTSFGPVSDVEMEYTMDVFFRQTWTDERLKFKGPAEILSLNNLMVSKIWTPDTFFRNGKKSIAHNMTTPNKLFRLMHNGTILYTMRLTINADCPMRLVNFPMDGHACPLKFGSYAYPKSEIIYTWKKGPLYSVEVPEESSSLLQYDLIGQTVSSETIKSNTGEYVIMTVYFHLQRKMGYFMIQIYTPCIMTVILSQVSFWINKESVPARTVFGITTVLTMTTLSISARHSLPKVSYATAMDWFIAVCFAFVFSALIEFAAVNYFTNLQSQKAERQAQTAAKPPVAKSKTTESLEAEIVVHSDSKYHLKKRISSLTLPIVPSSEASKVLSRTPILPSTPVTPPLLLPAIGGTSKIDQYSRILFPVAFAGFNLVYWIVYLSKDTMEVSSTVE
β2-AR, sequence (P07550 whole entry): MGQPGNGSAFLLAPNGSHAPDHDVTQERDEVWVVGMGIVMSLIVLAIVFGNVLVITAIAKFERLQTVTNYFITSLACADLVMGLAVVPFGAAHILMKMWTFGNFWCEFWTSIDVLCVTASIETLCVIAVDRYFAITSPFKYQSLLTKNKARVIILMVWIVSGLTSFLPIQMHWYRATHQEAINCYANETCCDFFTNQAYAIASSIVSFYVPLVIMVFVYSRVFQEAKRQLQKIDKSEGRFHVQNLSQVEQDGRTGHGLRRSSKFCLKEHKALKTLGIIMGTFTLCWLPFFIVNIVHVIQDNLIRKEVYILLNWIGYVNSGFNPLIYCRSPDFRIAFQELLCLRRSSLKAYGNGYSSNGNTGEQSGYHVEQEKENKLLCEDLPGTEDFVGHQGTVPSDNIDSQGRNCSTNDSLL

Take `O=C[C@H](O)[C@@H](O)[C@H](O)[C@H](O)COP(=O)(O)O` [Example G6P, glucose-6-phosphate]: the lipophilicity (log P) is −3.24. Further, the “flux from the liposome into plasma” value in data set [1] is given as “about 5 % per hour”. Regarding `CC1(C)C2CC=C(CO)C1C2` (centres unmarked) [myrtenol], the “GABA(A) delta agonism” value in data set [2] is listed as “GABA(A) delta agonist”.

On to `C[C@H](N)C(=O)N[C@@H](CCC(N)=O)C(=O)O` [AG, Alanyl-Glutamine] (H-Ala-Gln-OH), for which the “log P” value was −2.15. Besides, in data set [3], the plasma half-life was 15.6 min. Regarding `C=CCc1ccc(O)c(-c2ccc(O)c(CC=C)c2)c1` [Honokiol], in data set [4], the “increase of GABA current” value is on record as “about 900%”. Regarding `CC1=CC(O)C2CC1C2(C)C` (centres unmarked) [verbenol], in [2], the “GABA(A) delta agonism” value is listed as “GABA(A) delta agonist”. As to `NCCC(=O)N[C@@H](Cc1cnc[nH]1)C(=O)O` [Carnosine], the “log P” value is given as −1.19. Moreover, in data set [5], the “half-life in human plasma” value is below 5 min. `O=C(O)[C@H]1O[C@@H](Oc2cc3oc(-c4ccc(O)cc4)cc(=O)c3c(O)c2O)[C@H](O)[C@@H](O)[C@@H]1O` [scutellarin]: the bioavailability result in data set [6] (oral) is “less than 3%”. In data set [6] (over about an hour), the “factor of decrease of plasma concentration” value is listed as “about 10”. Take `NC(=O)[C@@H]1CCCN1C(=O)[C@H](Cc1cnc[nH]1)NC(=O)[C@@H]1CCC(=O)N1` [TRH]: the half-life in data set [7] was 7.6 min.

For `COc1ccc([C@@H]2CC(=O)c3c(O)cc(O)cc3O2)cc1O` [hesperetin], the lipophilicity (log P) is on record as 2.90. Consider `O=C1N[C@@H](Cc2cnc[nH]2)C(=O)N2CCC[C@@H]12` [Cyclo His-Pro], for which the log partition coefficient (log P) is −1.48. Also, in [8], the “biphasic half-life, first phase” value is 1 min and the “biphasic half-life, second phase” value was 33 min.

Consider `C[C@]12CC[C@@H](O)C[C@H]1CC[C@@H]1[C@@H]2CC[C@]2(C)[C@@H](C(=O)CO)CC[C@@H]12` [THDOC, tetrahydrodeoxycorticosterone], for which the “increase of GABA current” value in [9] was “at least 700%”.

Take hesperetin glucuronide: the log partition coefficient (log P) is on record as 0.12. Further, the EC50 in [10] was around 100 µM.

For the compound `N[C@@H](CCC(=O)NCCS(=O)(=O)O)C(=O)O` [GGT, Gamma-Glutamyltaurine], the log partition coefficient (log P) is on record as −3.36.

For the compound `O=c1c(O[C@@H]2O[C@H](CO)[C@H](O)[C@H](O)[C@H]2O)c(-c2ccc(O)c(O)c2)oc2cc(O)cc(O)c12` [hyperoside], the log partition coefficient (log P) was 1.75.

`O=c1cc(-c2ccccc2)oc2c(O)c(O)ccc12` [7,8-DHF, 7,8 dihydroxyflavone]: the “concentration activating TrkB receptors” value in data set [11] is listed as 250 nM. On to `Nc1ccn([C@@H]2O[C@H](CO)[C@@H](O)[C@@H]2O)c(=O)n1` [Cytarabine], for which the half-life in plasma in [12] (continuous infusion) is 126 min. Moreover, the half-life in data set [12] (intravenously delivered) was 7 to 107 min; in data set [12] (subcutaneously delivered), 18 min.

For `O=C(O)[C@H]1O[C@@H](Oc2cc3oc(-c4ccccc4)cc(=O)c3c(O)c2O)[C@H](O)[C@@H](O)[C@@H]1O` [baicalin], the log partition coefficient (log P) is given as 1.27. Consider `CC[C@H](C)[C@@H]1NC(=O)[C@H](Cc2ccc(O)cc2)NC(=O)[C@@H](N)CSSC[C@@H](C(=O)N2CCC[C@H]2C(=O)N[C@@H](CC(C)C)C(=O)NCC(N)=O)NC(=O)[C@H](CC(N)=O)NC(=O)[C@H](CCC(N)=O)NC1=O` [oxytocin], for which the “crossing of the blood brain barrier” value in data set [13] was “failure to cross the blood brain barrier”. The half-life in [14] was around 6.8 min. With `O=C(O)[C@H]1O[C@@H](Oc2c(-c3ccc(O)c(O)c3)oc3cc(O)cc(O)c3c2=O)[C@H](O)[C@@H](O)[C@@H]1O` [Example Q3G, quercetin-3-O-glucuronide], the “log P” value was 2.10. Further, the MMP-9 induction result in [15] is “suppressed”. Also, the “invasion of MDA-MB-231 breast cancer cells” value in data set [16] is reported as “suppressed invasion”. Besides, the “binding of [(3)H]-NA to β2-AR” value in [17] is given as “inhibited the binding”. Further, in [18], the plasma elimination half-life is 140 min. Turning to `NCCS(=O)(=O)O` [Taurine], the “log P” value is on record as −3.36. Further, the half-life in [19] is 60 min. Regarding `CC(=O)[C@H]1CC[C@H]2[C@@H]3CC[C@H]4C[C@H](O)CC[C@]4(C)[C@H]3CC[C@]12C` [Allopregnanolone, 3α-hydroxy-5α-pregnan-20-one], the “concentration range potentiating rat cerebellar GABA delta subunits” value in data set [20] was “nanomolar range”. On to `O=C1C[C@@H](c2ccccc2)Oc2cc(O)cc(O)c21` [Pinocembrin], for which the EC50 in data set [21] is 0.1 µM. `CC(C)=CCC[C@](C)(O)[C@H]1CC[C@]2(C)[C@@H]1[C@H](O)C[C@@H]1[C@@]3(C)CC[C@H](O[C@@H]4O[C@H](CO)[C@@H](O)[C@H](O)[C@H]4O[C@@H]4O[C@H](CO)[C@@H](O)[C@H](O)[C@H]4O)C(C)(C)[C@@H]3CC[C@]12C` [Rg3, ginsenoside Rg3]: in data set [22], the “increase in the duration of progression free survival” value is reported as 20%.

As a reminder, the log P is the decadic logarithm of the partition coefficient of the neutral form, usually between octanol and water. One may read the half-life as how long it takes for the measured level to halve.
